Data: patent US20110053773A1, “METHODS OF IMPROVING NUTRITIONAL VALUE OF PLANTS” (UNIVERSITY OF TENNESSEE RESEARCH FOUNDATION, priority 2009, published 2011)

Key:
basil ‘Genovese’ = test: Yield, fresh weight of basil after insecticide, fungicide, PGRs and safeners (Example 4, Table 10); type: in vivo; conditions: DA-A, check 31.8
Experimental: (§1) Greenhouse and laboratory studies were conducted to ascertain the tolerance and nutritional quality differences following postemergence applications of the insecticide chlorpyrifos, the fungicide chlorothalonil, the PGRs mepiquat-chloride and paclobutrazol, and the safeners napthalic anhydride and isoxadifen-ethyl on kale ‘Red Russian’ and basil ‘Genovese’. Visual injury was rated based on general phytotoxicity, chlorosis, and visual stunting and each measurement was based on a percent scale from 0 to 100 where 0 equals no visual response and 100 equals complete plant death. Kale and basil were both harvested approximately 4 weeks after treatments and plants were pooled over replicates for content analysis of crude protein, crude amino acid content, acid detergent fiber, neutral detergent fiber, total fatty acids, and/or key mineral content (including Na, Ca, P, Mg, K, Fe, Mn, Zn, and Cu). In addition, the amounts of key individual amino acids (aspartic acid, threonine, glutamic acid, proline, glycine, cysteine, valine, leucine, isoleucine, methionine, and lysine) and composite classifications of fatty acid (saturated fatty acids, monounsaturated fatty acids, polyunsaturated fatty acids) were also analyzed from these sub-samples for kale (Tables 10-14).

basil 'Genovese' [1] = test: Visual injury of basil after insecticide, fungicide, PGRs, safeners (Example 4)
Experimental: as §1

basil 'Genovese' [2] = test: Content analysis of basil: protein, minerals (Example 4, Tables 10-11); type: in vivo; conditions: 28 DA-A
Experimental: as §1

[3] = rates g ai/ha: chlropyrifos 1120, chlorothalonil 2630, paclobutrazol 3.23, mepiquat-chloride 12.3, Isoxadifen 8, Napthalic anhydride 264, + NIS 0.25 % v/v
[4] = 7 DA-A, rates g ai/ha: chlropyrifos 1120, chlorothalonil 2630, paclobutrazol 3.23, mepiquat-chloride 12.3, Isoxadifen 8, Napthalic anhydride 264, + NIS 0.25 % v/v
[5] = 7 DA-A, rates g ai/ha: chlropyrifos 3370, chlorothalonil 7900, paclobutrazol 9.7, mepiquat-chloride 37, Isoxadifen 16, Napthalic anhydride 527, + NIS 0.25 % v/v
[6] = 14 DA-A, rates g ai/ha: chlropyrifos 1120, chlorothalonil 2630, paclobutrazol 3.23, mepiquat-chloride 12.3, Isoxadifen 8, Napthalic anhydride 264, + NIS 0.25 % v/v
[7] = 14 DA-A, rates g ai/ha: chlropyrifos 3370, chlorothalonil 7900, paclobutrazol 9.7, mepiquat-chloride 37, Isoxadifen 16, Napthalic anhydride 527, + NIS 0.25 % v/v
[8] = 28 DA-A, rates g ai/ha: chlropyrifos 1120, chlorothalonil 2630, paclobutrazol 3.23, mepiquat-chloride 12.3, Isoxadifen 8, Napthalic anhydride 264, + NIS 0.25 % v/v
[9] = 28 DA-A, rates g ai/ha: chlropyrifos 3370, chlorothalonil 7900, paclobutrazol 9.7, mepiquat-chloride 37, Isoxadifen 16, Napthalic anhydride 527, + NIS 0.25 % v/v
[10] = rates g ai/ha: chlroprifos 3370, chlorothalonil 7900, paclobutrazol 9.7, mepiquat-chloride 37, Isoxadifen 16, Napthalic anhydride 527, + NIS 0.25 % v/v

## O=C1OC(=O)c2cccc3cccc1c23 [napthalic anhydride]
Basil ‘Genovese’; [3]
  Yield Fresh weight: 41.5 grams
Basil ‘Genovese’; rates g ai/ha: chlropyrifos 3370, chlorothalonil 7900, paclobutrazol 9.7, mepiquat-chloride 37, Isoxadifen 16, Napthalic anhydride 527, + NIS 0.25 % v/v
  Yield Fresh weight: 24.5 grams
Basil 'Genovese' [1]; [4]
  Phytotoxicity Chlorosis: 0%
  Phytotoxicity General: 5%
  Phytotoxicity Stunting: 0%
Basil 'Genovese' [1]; [5]
  Phytotoxicity Chlorosis: 2%
  Phytotoxicity General: 7%
  Phytotoxicity Stunting: 5%
Basil 'Genovese' [1]; [6]
  Phytotoxicity Chlorosis: 3%
  Phytotoxicity General: 7%
  Phytotoxicity Stunting: 0%
Basil 'Genovese' [1]; [7]
  Phytotoxicity Chlorosis: 2%
  Phytotoxicity General: 10%
  Phytotoxicity Stunting: 7%
Basil 'Genovese' [1]; [8]
  Phytotoxicity Chlorosis: 2%
  Phytotoxicity General: 5%
  Phytotoxicity Stunting: 0%
Basil 'Genovese' [1]; [9]
  Phytotoxicity Chlorosis: 2%
  Phytotoxicity General: 3%
  Phytotoxicity Stunting: 7%
Basil 'Genovese' [2]; [10]
  ADF, Percent Increase Over the Untreated Check (on a % dry matter basis): 4 % check
  Calcium, Percent Increase Over the Untreated Check (on a % dry matter basis): −8 % check
  Copper, Percent Increase Over the Untreated Check (on a % dry matter basis): −17 % check
  Iron, Percent Increase Over the Untreated Check (on a % dry matter basis): 0 % check
  Magnesium, Percent Increase Over the Untreated Check (on a % dry matter basis): −6 % check
  Manganese, Percent Increase Over the Untreated Check (on a % dry matter basis): −16 % check
  NDF, Percent Increase Over the Untreated Check (on a % dry matter basis): 1 % check
  Phosphorous, Percent Increase Over the Untreated Check (on a % dry matter basis): −9 % check
  Potassium, Percent Increase Over the Untreated Check (on a % dry matter basis): −23 % check
  Protein, Percent Increase Over the Untreated Check (on a % dry matter basis): 3 % check
  Sodium, Percent Increase Over the Untreated Check (on a % dry matter basis): −8 % check
  Soluble protein, Percent Increase Over the Untreated Check (on a % dry matter basis): 31 % check
  Zinc, Percent Increase Over the Untreated Check (on a % dry matter basis): −13 % check
Basil 'Genovese' [2]; [3]
  ADF, Percent Increase Over the Untreated Check (on a % dry matter basis): 13 % check
  Calcium, Percent Increase Over the Untreated Check (on a % dry matter basis): 2 % check
  Copper, Percent Increase Over the Untreated Check (on a % dry matter basis): 0 % check
  Iron, Percent Increase Over the Untreated Check (on a % dry matter basis): 14 % check
  Magnesium, Percent Increase Over the Untreated Check (on a % dry matter basis): 12 % check
  Manganese, Percent Increase Over the Untreated Check (on a % dry matter basis): 37 % check
  NDF, Percent Increase Over the Untreated Check (on a % dry matter basis): 2 % check
  Phosphorous, Percent Increase Over the Untreated Check (on a % dry matter basis): 22 % check
  Potassium, Percent Increase Over the Untreated Check (on a % dry matter basis): −4 % check
  Protein, Percent Increase Over the Untreated Check (on a % dry matter basis): 32 % check
  Sodium, Percent Increase Over the Untreated Check (on a % dry matter basis): 33 % check
  Soluble protein, Percent Increase Over the Untreated Check (on a % dry matter basis): 4 % check
  Zinc, Percent Increase Over the Untreated Check (on a % dry matter basis): 47 % check
